28 compounds from patent US11661426B2, “Imidazole-containing inhibitors of ALK2 kinase” (BioCryst Pharmaceuticals, Inc., priority 2017, dated 2023) can be followed below.

The structures appear in SMILES notation.

For this test, the target named is ALK2 (Homo sapiens (Human), UniProt Q04771). As to the kind of experiment: ALK2 inhibition, LanthaScreen Eu Kinase Binding Assay (ThermoFisher Scientific / Life Technologies). As to conditions: read-out: Measured Ki (IC50) Value for Compounds: IC50. The protocol: Biochemical assays to measure the inhibitory effects of the compounds were performed by ThermoFisher Scientific (Life Technologies). ALK2 inhibition was tested using LanthaScreen™ Eu Kinase Binding Assay screening protocol.
Sequence of ALK2 (Q04771 21-509): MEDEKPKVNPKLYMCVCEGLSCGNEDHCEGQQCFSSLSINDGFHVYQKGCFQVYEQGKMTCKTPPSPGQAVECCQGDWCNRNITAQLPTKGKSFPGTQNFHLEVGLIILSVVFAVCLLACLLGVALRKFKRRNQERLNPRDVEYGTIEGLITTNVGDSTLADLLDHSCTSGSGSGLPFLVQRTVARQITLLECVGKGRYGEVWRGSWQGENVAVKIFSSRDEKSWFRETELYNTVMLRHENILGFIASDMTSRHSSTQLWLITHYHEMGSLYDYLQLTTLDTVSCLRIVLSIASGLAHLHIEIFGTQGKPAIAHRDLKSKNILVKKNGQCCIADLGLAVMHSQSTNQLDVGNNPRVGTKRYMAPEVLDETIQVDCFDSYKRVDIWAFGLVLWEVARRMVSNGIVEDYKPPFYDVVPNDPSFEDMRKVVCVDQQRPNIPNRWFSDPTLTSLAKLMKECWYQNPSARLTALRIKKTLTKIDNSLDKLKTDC
`COc1cc(-n2cnc(Nc3nc4c(c(N5CCC[C@H]5CO)n3)CCN(Cc3ccc(C#N)cc3)C4)c2)cc(OC)c1OC` [Compound 219a, (S)-4-((4-(2-(hydroxymethyl)pyrrolidin-1-yl)-2-((1-(3,4,5-trimethoxyphenyl)-1H-imidazol-4-yl)amino)-5,6-dihydropyrido[3,4-d]pyrimidin-7(8H)-yl)methyl)benzonitrile]: the IC50 was less than 100 nM.

As to `COc1cc(-n2cnc(Nc3nc4c(c(N5CCC[C@H]5CO)n3)CCN(Cc3cccc(C#N)c3)C4)c2)cc(OC)c1OC` [Compound 220a, (S)-3-((4-(2-(hydroxymethyl)pyrrolidin-1-yl)-2-((1-(3,4,5-trimethoxyphenyl)-1H-imidazol-4-yl)amino)-5,6-dihydropyrido[3,4-d]pyrimidin-7(8H)-yl)methyl)benzonitrile], the IC50 was less than 100 nM.

With `COc1cc2nc(Nc3cn(-c4cc(OC)c(OC)c(OC)c4)cn3)nc(N3CCC[C@H]3CO)c2cc1OC` [Compound 221c, (S)-(1-(6,7-dimethoxy-2-((1-(3,4,5-trimethoxyphenyl)-1H-imidazol-4-yl)amino)quinazolin-4-yl)pyrrolidin-2-yl)methanol], the IC50 was less than 100 nM.

As to `COc1cc(-n2cnc(Nc3nc(N4CCC[C@H]4C(C)(C)O)c4cccn4n3)c2)cc(OC)c1OC` [Compound 222b, (S)-2-(1-(2-((1-(3,4,5-trimethoxyphenyl)-1H-imidazol-4-yl)amino)pyrrolo[2,1-f][1,2,4]triazin-4-yl)pyrrolidin-2-yl)propan-2-ol], the IC50 is less than 100 nM.

In the case of `COc1cc(-n2cnc(Nc3nc(N4CC(F)(F)C[C@H]4CO)c4cccn4n3)c2)cc(OC)c1OC` [Compound 223b, (S)-(4,4-difluoro-1-(2-((1-(3,4,5-trimethoxyphenyl)-1H-imidazol-4-yl)amino)pyrrolo[2,1-f][1,2,4]triazin-4-yl)pyrrolidin-2-yl)methanol], the IC50 was less than 100 nM.

As to `COc1cc(-n2cnc(Nc3nc4c(c(N5CCCC5)n3)CN(Cc3ccccc3)CC4)c2)cc(OC)c1OC` [Compound 224b, 6-benzyl-4-(pyrrolidin-1-yl)-N-(1-(3,4,5-trimethoxyphenyl)-1H-imidazol-4-yl)-5,6,7,8-tetrahydropyrido[4,3-d]pyrimidin-2-amine], the IC50 is less than 100 nM.

In the case of `COc1cc(-n2cnc(Nc3nc4c(c(N5CCCC5)n3)CCN(Cc3ccccc3)C4)c2)cc(OC)c1OC` [Compound 225b, 7-benzyl-4-(pyrrolidin-1-yl)-N-(1-(3,4,5-trimethoxyphenyl)-1H-imidazol-4-yl)-5,6,7,8-tetrahydropyrido[3,4-d]pyrimidin-2-amine], the IC50 is less than 100 nM.

In the case of `COc1cc(-n2cnc(Nc3nc4c(c(N5CCC[C@H]5CO)n3)CCCC4)c2)cc(OC)c1OC` [Compound 226c, (S)-(1-(2-((1-(3,4,5-trimethoxyphenyl)-1H-imidazol-4-yl)amino)-5,6,7,8-tetrahydroquinazolin-4-yl)pyrrolidin-2-yl)methanol], the IC50 was less than 100 nM.

On to `COc1cc(-n2cnc(Nc3nc(N4CCC[C@@H]4CO)c4cccn4n3)c2)cc(OC)c1OC` [Compound 227b, (R)-(1-(2-((1-(3,4,5-trimethoxyphenyl)-1H-imidazol-4-yl)amino)pyrrolo[2,1-f][1,2,4]triazin-4-yl)pyrrolidin-2-yl)methanol], for which the IC50 lay within 100 to 1000 nM.

`COc1cncc(-n2cnc(Nc3nc(N4CCC[C@H]4CO)c4cccn4n3)c2)c1` [Compound 228d, (S)-(1-(2-((1-(5-methoxypyridin-3-yl)-1H-imidazol-4-yl)amino)pyrrolo[2,1-f][1,2,4]triazin-4-yl)pyrrolidin-2-yl)methanol]: the IC50 fell in the range of 100 to 1000 nM.

For the compound `COc1ccc(-n2cnc(Nc3nc(N4CCC[C@H]4CO)c4cccn4n3)c2)cc1C(F)(F)F` [Compound 229d, (S)-(1-(2-((1-(4-methoxy-3-(trifluoromethyl)phenyl)-1H-imidazol-4-yl)amino)pyrrolo[2,1-f][1,2,4]triazin-4-yl)pyrrolidin-2-yl)methanol], the IC50 was 100 to 1000 nM.

Take `COc1cc(-n2cnc(Nc3nc(N4CCC[C@H]4C(N)=O)c4cccn4n3)c2)cc(C(N)=O)c1OC` [Compound 230f, (S)-1-(2-((1-(3-carbamoyl-4,5-dimethoxyphenyl)-1H-imidazol-4-yl)amino)pyrrolo[2,1-f][1,2,4]triazin-4-yl)pyrrolidine-2-carboxamide]: the IC50 is greater than 1000 nM.

For the compound `COc1cc(-n2cnc(Nc3nc(N4CCC[C@H]4CO)c4cccn4n3)c2)cc(C(N)=O)c1OC` [Compound 231a, (S)-5-(4-((4-(2-(hydroxymethyl)pyrrolidin-1-yl)pyrrolo[2,1-f][1,2,4]triazin-2-yl)amino)-1H-imidazol-1-yl)-2,3-dimethoxybenzamide], the IC50 lay within 100 to 1000 nM.

For the compound `COc1cc(-n2cnc(Nc3nc(N4CCCC4)c4ncsc4n3)c2)cc(OC)c1OC` [Compound 233b, 7-(pyrrolidin-1-yl)-N-(1-(3,4,5-trimethoxyphenyl)-1H-imidazol-4-yl)thiazolo[5,4-d]pyrimidin-5-amine], the IC50 is 100 to 1000 nM.

With `COc1cc(-n2cnc(Nc3nc(N4CCC[C@H]4CO)c4cccn4n3)c2)cc(C(C)=O)c1OC` [Compound 234e, (S)-1-(5-(4-((4-(2-(hydroxymethyl)pyrrolidin-1-yl)pyrrolo[2,1-f][1,2,4]triazin-2-yl)amino)-1H-imidazol-1-yl)-2,3-dimethoxyphenyl)ethanone], the IC50 fell in the range of 100 to 1000 nM.

As to `COc1cc(-n2cnc(Nc3nc(N4CCN(C)CC4)nc4ccoc34)c2)cc(OC)c1OC` [Compound 235a, 2-(4-methylpiperazin-1-yl)-N-(1-(3,4,5-trimethoxyphenyl)-1H-imidazol-4-yl)furo[3,2-d]pyrimidin-4-amine], the IC50 is less than 100 nM.

For `COc1cc(-n2cnc(Nc3nc(N4CC[C@@H](O)C4)nc4ccoc34)c2)cc(OC)c1OC` [Compound 236a, (R)-1-(4-((1-(3,4,5-trimethoxyphenyl)-1H-imidazol-4-yl)amino)furo[3,2-d]pyrimidin-2-yl)pyrrolidin-3-ol], the IC50 was less than 100 nM.

Turning to `COc1cc(-n2cnc(Nc3nc(N4CC[C@H](O)C4)nc4ccoc34)c2)cc(OC)c1OC` [Compound 237a, (S)-1-(4-((1-(3,4,5-trimethoxyphenyl)-1H-imidazol-4-yl)amino)furo[3,2-d]pyrimidin-2-yl)pyrrolidin-3-ol], the IC50 is less than 100 nM.

In the case of `COc1cc(-n2cnc(Nc3nc(N4CCC[C@@H]4CO)nn4cccc34)c2)cc(OC)c1OC` [Compound 238a, (R)-(1-(4-((1-(3,4,5-trimethoxyphenyl)-1H-imidazol-4-yl)amino)pyrrolo[2,1-f][1,2,4]triazin-2-yl)pyrrolidin-2-yl)methanol], the IC50 was less than 100 nM.

Regarding `COc1cc(-n2cnc(Nc3nc4c(c(N5CCC[C@H]5CO)n3)CN(C(=O)C3CC3)CC4)c2)cc(OC)c1OC` [Compound 239a, (S)-cyclopropyl(4-(2-(hydroxymethyl)pyrrolidin-1-yl)-2-((1-(3,4,5-trimethoxyphenyl)-1H-imidazol-4-yl)amino)-7,8-dihydropyrido[4,3-d]pyrimidin-6(5H)-yl)methanone], the IC50 was less than 100 nM.

For `COc1cc(-n2cnc(Nc3nc4c(c(N5CCC[C@H]5CO)n3)CN(C(=O)[C@@H]3CCC(=O)N3)CC4)c2)cc(OC)c1OC` [Compound 240a, (S)-5-(4-((S)-2-(hydroxymethyl)pyrrolidin-1-yl)-2-((1-(3,4,5-trimethoxyphenyl)-1H-imidazol-4-yl)amino)-5,6,7,8-tetrahydropyrido[4,3-d]pyrimidine-6-carbonyl)pyrrolidin-2-one], the IC50 was less than 100 nM.

As to `COc1cc(-n2cnc(Nc3nc4c(c(N5CCC[C@H]5CO)n3)CN(C(=O)c3ccc(C#N)cc3)CC4)c2)cc(OC)c1OC` [Compound 241a, (S)-4-(4-(2-(hydroxymethyl)pyrrolidin-1-yl)-2-((1-(3,4,5-trimethoxyphenyl)-1H-imidazol-4-yl)amino)-5,6,7,8-tetrahydropyrido[4,3-d]pyrimidine-6-carbonyl)benzonitrile], the IC50 was less than 100 nM.

On to `COc1cc(OC)cc(-n2cnc(Nc3nc(N4CCC[C@H]4CO)c4cccn4n3)c2)c1` [Compound 242a, (S)-(1-(2-((1-(3,5-dimethoxyphenyl)-1H-imidazol-4-yl)amino)pyrrolo[2,1-f][1,2,4]triazin-4-yl)pyrrolidin-2-yl)methanol], for which the IC50 lay within 100 to 1000 nM.

For `COc1ccc(-n2cnc(Nc3nc(N4CCC[C@H]4CO)c4cccn4n3)c2)cc1OC` [Compound 243a, (S)-(1-(2-((1-(3,4-dimethoxyphenyl)-1H-imidazol-4-yl)amino)pyrrolo[2,1-f][1,2,4]triazin-4-yl)pyrrolidin-2-yl)methanol], the IC50 was in the range of 100 to 1000 nM.

Turning to `COc1cc(-n2cnc(Nc3nc(N4CCC[C@H]4CO)c4ccc(OC(C)C)cc4n3)c2)cc(OC)c1OC` [Compound 244b, (S)-(1-(7-isopropoxy-2-((1-(3,4,5-trimethoxyphenyl)-1H-imidazol-4-yl)amino)quinazolin-4-yl)pyrrolidin-2-yl)methanol], the IC50 was less than 100 nM.

In the case of `COc1cc(-n2cnc(Nc3nc(N4CCC[C@H]4C(N)=O)nn4c(CN5CCNCC5)ccc34)c2)cc(OC)c1OC` [Compound 245c, (S)-1-(7-(piperazin-1-ylmethyl)-4-((1-(3,4,5-trimethoxyphenyl)-1H-imidazol-4-yl)amino)pyrrolo[2,1-f][1,2,4]triazin-2-yl)pyrrolidine-2-carboxamide], the IC50 is less than 100 nM.

For `COc1cc(-n2cnc(Nc3nc(N4CC[C@@H](CO)C4)nc4ccoc34)c2)cc(OC)c1OC` [Compound 246a, (R)-(1-(4-((1-(3,4,5-trimethoxyphenyl)-1H-imidazol-4-yl)amino)furo[3,2-d]pyrimidin-2-yl)pyrrolidin-3-yl)methanol], the IC50 was less than 100 nM.

Turning to `COc1cc(-n2cnc(Nc3nc(N4CCC[C@H]4C(=O)NC4CC4)nc4ccoc34)c2)cc(OC)c1OC` [Compound 247b, (S)—N-cyclopropyl-1-(4-((1-(3,4,5-trimethoxyphenyl)-1H-imidazol-4-yl)amino)furo[3,2-d]pyrimidin-2-yl)pyrrolidine-2-carboxamide], the IC50 is less than 100 nM.
